The values that follow come from patent US20140335132A1, “BINDING DRUGS WITH NANOCRYSTALLINE CELLULOSE (NCC)” (priority 2010, published 2014).

The structures appear in SMILES notation. Where a name gives a salt, the structure may show the parent alone.

Series [1] in a line: Retention of fluorescein bound to NCC/CTAB in aqueous media. The series is classed as physicochemical. The following applies: upon resuspension or dilution in aqueous media.
The next series deals with KU-7 cells. As to the kind of experiment: Cell binding and uptake of NCC/CTAB/fluorescein (fluorescence, confocal microscopy). In kind it is cell-based. The protocol: FIGS. 10A, B, C and D are confocal micrographs of KU-7 cells incubated for 2 hours with NCC/CTAB/fluoroscein system with a fluorescein concentration of 0.25 mg/ml. (A) White light image of KU-7 cells. (B) Staining of the nuclei with DAPI. (C) Fluorescein in the cytoplasm. (D) An overlay of images B and C.

The nature of series [2]: Binding of hydrophobic drugs to NCC/CTAB nanocomplexes. In kind it is physicochemical. As to conditions: for binding efficiency to NCC/CTAB nanocomplexes / saturation of binding: 12.9 mM CTAB, 2.5 mg NCC, 10 mM NaCl; for binding efficiency to NCC/CTAB nanocomplexes: 25° C., up to 100 μg of drug added; for final mass of drug bound to NCC/CTAB for the release studies: DTX and PTX incubated at 200 μg/ml, ETOP at 100 μg/ml. Here is the method:
In order to solubilize the hydrophobic drugs paclitaxel (PTX), docetaxel (DTX) and etoposide (ETOP), the surface of the NCC was first modified with CTAB. This was achieved by incubating increasing amounts of CTAB with 2.5 mg of NCC so the final CTAB concentration varied from 0 mM to 12.9 mM. An aliquot of 100 mM NaCl was added, resulting in a final NaCl concentration of 10 mM, which facilitated flocculation and subsequent separation of the NCC/CTAB nanocomplexes by centrifugation as described above. The NCC/CTAB was incubated with stock solutions of the drugs with increasing concentrations. Since these drugs are characterized by low aqueous solubility, they were solubilized in a minimal amount of either DMSO or diblock copolymer in 10 mM NaCl as previously described. The drug/NCC/CTAB suspensions were incubated at 25° C. with tumbling at 8 rpm for 30 minutes then centrifuged at 18000×g for 10 minutes to pellet the NCC/CTAB and bound drug. The amount of unbound drug in the supernatant was determined by HPLC using a Waters HPLC system with Millennium software and UV Vis detection. Separation was achieved using a Novapak™ C18 column with 20 μl injections and a mobile phase flow rate of 1 ml/min. The DTX and PTX mobile phase consisted of 58% acetonitrile, 37% dH2O and 5% methanol with detection at 232 nm. The mobile phase for ETOP was 27% acetonitrile, 1% acetic acid and 72% dH2O and detection was at 286 nm. Calibration curves were prepared for all drugs and were linear in the desired concentration range. The amount of drug bound to the NCC/CTAB was determined using equation (1).

Series [3] can be described thus: In vitro release of drugs from NCC/CTAB nanocomplexes in PBS. In kind it is physicochemical. The following applies: 12.9 mM CTAB, 10 mM PBS, 37° C. The protocol: (§1) Drug Release Procedure: DOX was bound to NCC for release studies by incubating a solution of 325 μg/ml of DOX in distilled water with a suspension containing 2.5 mg of NCC. In order to flocculate the NCC and allow for separation of the NCC/DOX nanocomplexes, NaCl was added to a final concentration of 10 mM. The suspension was centrifuged at 18000×g for 10 minutes to pellet the NCC/DOX and the drug binding was determined by UV Vis spectroscopy as described above. […] NCC/drug nanocomplexes with DTX, PTX and ETOP were prepared as described for the drug binding studies. The concentration of DTX and PTX that was incubated with the NCC suspension was 200 μg/ml and the concentration of ETOP was 100 μg/ml. […] The drug loaded NCC samples were resuspended in 1 ml of PBS followed by incubation at 37° C. with tumbling at 8 rpm. At predetermined times the suspensions were centrifuged at 18000×g for 10 minutes and the supernatant was removed for drug quantitation by UV Vis for DOX and TET or HPLC for DTX, PTX and ETOP, as previously described. At each sampling time point, fresh PBS was added to the tubes and the NCC/drug nanocomplexes were resuspended.

A short description of series [4]: Binding of hydrophilic drugs to NCC. The series is classed as physicochemical. The following applies: for final mass of drug bound to NCC for the release studies: 2.5 mg NCC, distilled water then 10 mM NaCl, DOX solution 325 μg/ml, TET solution 1000 μg/ml; for binding efficiency / maximum mass of drug bound to NCC: 2 mg NCC. Here is the method: NCC Drug Binding Procedure: Doxorubicin hydrochloride (DOX) or tetracycline hydrochloride (TET), were dissolved in either 10 mM phosphate buffered saline (PBS) at pH 7.4, or dH2O with increasing drug concentrations ([drugadded]). Drug solutions (1.5 ml) were added to 0.5 ml of NCC suspension in a 2 ml microcentrifuge tube and incubated at 37° C. with tumbling shaking at 8 rpm for 30 minutes. Suspensions containing PBS or NaCl produced flocculated NCC/drug suspensions, which were centrifuged at 18000×g for 10 minutes to pellet the NCC and bound drug. The concentration of unbound drug in the supernatant ([drugunbound]) was assayed using a Varian 50 Bio UV Vis spectrophotometer (Varian, Inc., Mississauga, Ont.) using wavelengths of 482 nm and 364 nm for DOX and TET, respectively. The concentration of drug bound to the NCC ([drugbound]) was calculated using the following equation:
[drugbound]=[drugadded]−[drugunbound] (1)
In this case, the NCC/drug suspensions were transferred to dialysis bags with a molecular weight cut off of 10000 Da (Spectrum Laboratories, Inc., Rancho Dominguez, Calif.) and dialysed against distilled water overnight in the dark at 4° C. The concentration of unbound drug in the dialysate was determined by UV Vis spectroscopy, allowing for the calculation of the amount of drug bound to the NCC according to equation (1).

Series [5] in a line: In vitro release of drugs from NCC in PBS. The series is classed as physicochemical. The following applies: 10 mM PBS, 37° C. Here is the method: as §1
Setting [6] is: dispersion medium PBS 10 mM, pH 7.4.
Where [7] appears, read: dispersion medium distilled water.

`O=C1OC2(c3ccc(O)cc3Oc3cc(O)ccc32)c2ccccc21` [fluorescein]: the “fluorescein remaining bound to NCC/CTAB” value in series [1] is “More than 95%”. Further, the “time by which cellular uptake of fluorescein reached a maximum” value in the series on KU-7 cells is not above 2 h.
Consider `COc1cc([C@@H]2c3cc4c(cc3[C@@H](O[C@@H]3O[C@@H]5CO[C@@H](C)O[C@H]5[C@H](O)[C@H]3O)[C@H]3COC(=O)[C@H]23)OCO4)cc(OC)c1O` [ETOP, etoposide], for which the “maximum mass of drug bound to NCC/CTAB” value in series [2] (100 μg of drug added) came out at 48 µg. For the same compound, in series [2], the “binding efficiency to NCC/CTAB nanocomplexes” value turned out to be 48% and the “final mass of drug bound to NCC/CTAB for the release studies” value (“final mass of drug bound to NCC/CTAB” for short) was 63 ± 0.1 µg. In series [3] (four days), the “total drug released over four days” value was found to be 75%.
As for `CC(=O)O[C@@]12CO[C@@H]1C[C@H](O)[C@@]1(C)C(=O)[C@H](O)C3=C(C)[C@@H](OC(=O)[C@H](O)[C@@H](NC(=O)OC(C)(C)C)c4ccccc4)C[C@@](O)([C@@H](OC(=O)c4ccccc4)[C@H]21)C3(C)C` [DTX, docetaxel], in series [2], the saturation of binding entry is “approximately 200 μg”, the “binding efficiency to NCC/CTAB nanocomplexes” value is given as “approximately 90%” and the “final mass of drug bound to NCC/CTAB” value is 184 ± 4.8 µg. Also, in series [3], the “bound drug released within the first hour” value is reported as “Approximately 26%” and the “total bound drug released in two days” value came out at 59%.
Regarding `CC(=O)O[C@H]1C(=O)[C@@]2(C)[C@H]([C@H](OC(=O)c3ccccc3)[C@]3(O)C[C@H](OC(=O)[C@H](O)[C@@H](NC(=O)c4ccccc4)c4ccccc4)C(C)=C1C3(C)C)[C@]1(OC(C)=O)CO[C@@H]1C[C@@H]2O` [PTX, paclitaxel], in series [2], the saturation of binding result is recorded as “approximately 200 μg”, the “binding efficiency to NCC/CTAB nanocomplexes” value is reported as “approximately 90%” and the “final mass of drug bound to NCC/CTAB” value is 149 ± 4.8 µg. Moreover, in series [3], the “bound drug released within the first hour” value was 20% and the “total bound drug released in two days” value was 44%.
As to `COc1cccc2c1C(=O)c1c(O)c3c(c(O)c1C2=O)C[C@@](O)(C(=O)CO)C[C@@H]3O[C@H]1C[C@H](N)[C@H](O)[C@H](C)O1` [DOX, Doxorubicin hydrochloride], the “final mass of drug bound to NCC for the release studies” value in series [4] stood at 212 ± 3.5 µg. In addition, in series [4] (setting [6]), the binding efficiency came to 65% and the “maximum mass of drug bound to NCC” value stood at 122 µg. For the same compound, in series [4] (setting [7]), the binding efficiency is 83% and the “maximum mass of drug bound to NCC” value is 1667 µg. Besides, in series [5], the “bound drug released in four hours” value is approximately 85% and the “bound drug released by one day (plateau)” value is 87%.
For `CN(C)[C@@H]1C(O)=C(C(N)=O)C(=O)[C@@]2(O)C(O)=C3C(=O)c4c(O)cccc4[C@@](C)(O)[C@H]3C[C@@H]12` [TET, tetracycline hydrochloride], in series [4], the “final mass of drug bound to NCC for the release studies” value came out at 187 ± 2.0 µg. The same compound yielded a drug loading in series [4] (almost 500 μg on 2 mg of NCC) of 20 % w/w. Moreover, the “mass of drug bound to NCC” value in series [4] (bound to 2 mg of NCC (FIG. 2)) was approximately 500 µg. In series [4] (setting [6]), the binding efficiency was determined as 25% and the “maximum mass of drug bound to NCC” value was determined as 251 µg. In addition, in series [4] (setting [7]), the binding efficiency was 48% and the “maximum mass of drug bound to NCC” value turned out to be 959 µg. Besides, in series [5], the “bound drug released in four hours” value is “approximately 90%” and the “bound drug released by one day (plateau)” value is given as 93%.
